Results from patent EP0623340B1, “Use of hydroxy or dihydroxynaphthalene in the preparation of a cosmetic or dermatological composition for skin whitening” (L'OREAL, priority 1993, dated 1994).

System: tyrosinase de champignons
Assay: in vitro tyrosinase activity inhibition test (dopachrome formation followed at 475 nm)
Assay type: biochemical
Details: lowering of maximal dopachrome formed (OD 475 nm at plateau) vs no inhibitor; inhibitor at 50 % molaire relative to tyrosine; pH 6,5; 25°C
From the text: Certains des composés de formule générale (I) ont été étudiés comparativement à l'hydroquinone à quantité molaire équivalente dans le test d'inhibition in vitro de l'activité de la tyrosinase.
Selon ce test on suit par spectrométrie visible à 475 nm la quantité de dopachrome formée au cours de la chaîne de réactions de transformation de la tyrosine en mélanines. Ces réactions sont catalysées in vitro par la tyrosinase de champignons, en présence d'un co-substrat réducteur (par exemple la L-dopa en petite quantité) pour initier la réaction d'hydroxylation de la L-tyrosine en L-dopa, laquelle est ensuite oxydée catalytiquement en dopaquinone puis en dopachrome, produit intermédiaire avant les réactions d'oxydation non enzymatiques aboutissant à la formation des mélanines.
On mesure donc la concentration en dopachrome formé au cours du temps en présence et en absence de l'inhibiteur.
Les concentrations en inhibiteurs sont fixées à 50 % molaire par rapport à la concentration en tyrosine dans le milieu réactionnel.
On exprime l'effet d'inhibition par l'abaissement de la quantité maximale de dopachrome formée (valeur de densité optique à 475 nm lue au plateau de la courbe) par rapport à la quantité obtenue en l'absence d'inhibiteur.
• A - Tampon phosphate 0,1 M pH = 6,5 (Tween 20 à 1 %) • B - Solution mère de L-tyrosine à 2.10^-3 M dans A • C - Solution mère de L-dopa à 10^-4 M dans A • D - Solution mère de tyrosinase de champignons à 2.400 unités/ml dans A • E - Solution mère de l'inhibiteur à 10^-2 M dans A (les solutions C et D sont à préparer le jour même)
• cuve de référence : 3 ml de A • cuve d'essai : 1 ml de B 0,1 ml de C 1,85ml de A + E • homogénéiser et équilibrer à 25°C • ajouter 0,05 ml de D • mélanger rapidement et observer la cinétique par la mesure de l'absorbance à 475 nm en fonction du temps.

% change in maximal dopachrome formed vs no inhibitor | SMILES
-91% | Oc1ccc2cc(O)ccc2c1 [[drawing] r4]
-47% | Oc1ccc2c(O)cccc2c1 [[drawing] r3]

SMILES | % change in maximal dopachrome formed vs no inhibitor
Oc1ccc(O)cc1 [hydroquinone, reference compound] | -33%
